Molecular target: T1, human recombinant TG2 (Homo sapiens, UniProt P21980)
T1 construct: gene TGM2; recombinant, enzymatically active
T1 sequence (P21980 2-687): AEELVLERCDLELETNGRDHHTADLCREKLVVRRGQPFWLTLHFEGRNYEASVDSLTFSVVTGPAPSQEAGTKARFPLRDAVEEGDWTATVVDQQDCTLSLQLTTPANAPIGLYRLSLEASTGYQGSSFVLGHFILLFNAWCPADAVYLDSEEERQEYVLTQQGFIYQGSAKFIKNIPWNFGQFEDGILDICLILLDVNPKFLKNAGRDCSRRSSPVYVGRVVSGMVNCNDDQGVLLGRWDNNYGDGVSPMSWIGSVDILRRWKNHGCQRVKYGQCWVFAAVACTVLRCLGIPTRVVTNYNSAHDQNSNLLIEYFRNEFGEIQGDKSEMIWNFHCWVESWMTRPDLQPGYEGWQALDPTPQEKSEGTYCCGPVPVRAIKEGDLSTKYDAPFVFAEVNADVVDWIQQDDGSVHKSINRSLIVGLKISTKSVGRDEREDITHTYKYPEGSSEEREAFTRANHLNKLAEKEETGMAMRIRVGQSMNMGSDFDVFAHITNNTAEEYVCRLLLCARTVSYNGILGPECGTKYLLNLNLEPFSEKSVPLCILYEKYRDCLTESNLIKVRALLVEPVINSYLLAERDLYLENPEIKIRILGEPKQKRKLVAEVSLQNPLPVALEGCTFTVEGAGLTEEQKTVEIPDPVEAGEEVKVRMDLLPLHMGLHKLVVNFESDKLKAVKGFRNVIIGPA
Assay: in vitro serotonylation of Rac1 peptide, ESI-MS
Format: biochemical
Conditions: 1 mM serotonin, biotinylated Rac1 peptide co-substrate, 10 mM CaCl2, pH 7.4, 37 °C overnight

NCCc1c[nH]c2ccc(O)cc12 [5-HT]
in vitro serotonylation of Rac1 peptide, ESI-MS: the peptide was modified with a single serotonin moiety

Reference: paper PMC10823224, “γδ T cell antigen receptor polyspecificity enables T cell responses to a broad range of immune challenges” (Proceedings of the National Academy of Sciences of the …, 2024)
